Data reported in US20050107386A1, “Methods of treating diseases and disorders by targeting multiple kinases” (priority 2003, published 2005).

Legend:
[1] = biological target: T1, PKCμ(h) (Homo sapiens, UniProt Q15139); test: PKCμ(h) kinase assay; type: biochemical; details: 3 μM; percent of control kinase activity
T1 sequence (Q15139 1-912): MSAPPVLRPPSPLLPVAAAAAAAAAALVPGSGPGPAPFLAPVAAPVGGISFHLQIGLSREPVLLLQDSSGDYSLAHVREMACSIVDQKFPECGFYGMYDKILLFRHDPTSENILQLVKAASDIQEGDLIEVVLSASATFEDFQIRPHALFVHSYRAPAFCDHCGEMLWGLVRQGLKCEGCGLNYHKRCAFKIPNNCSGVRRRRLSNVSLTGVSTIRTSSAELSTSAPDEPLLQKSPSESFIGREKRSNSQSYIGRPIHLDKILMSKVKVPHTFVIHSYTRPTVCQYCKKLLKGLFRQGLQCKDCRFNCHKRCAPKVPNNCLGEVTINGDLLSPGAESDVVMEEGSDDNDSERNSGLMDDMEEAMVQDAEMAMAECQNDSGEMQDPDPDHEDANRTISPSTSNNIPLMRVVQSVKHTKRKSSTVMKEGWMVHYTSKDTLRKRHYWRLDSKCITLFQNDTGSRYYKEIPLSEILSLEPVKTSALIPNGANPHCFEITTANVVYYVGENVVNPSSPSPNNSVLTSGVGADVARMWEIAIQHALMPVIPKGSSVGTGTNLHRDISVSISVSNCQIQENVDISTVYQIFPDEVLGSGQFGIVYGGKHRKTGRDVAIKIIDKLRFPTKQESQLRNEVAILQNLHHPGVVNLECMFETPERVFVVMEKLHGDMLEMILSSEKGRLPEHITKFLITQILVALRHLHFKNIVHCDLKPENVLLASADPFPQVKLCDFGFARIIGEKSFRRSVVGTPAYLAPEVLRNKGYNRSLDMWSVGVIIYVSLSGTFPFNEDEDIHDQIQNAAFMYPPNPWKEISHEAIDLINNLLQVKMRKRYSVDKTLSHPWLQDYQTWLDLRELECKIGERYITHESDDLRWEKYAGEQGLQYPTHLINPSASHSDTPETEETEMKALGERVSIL
Description: (§1) Six compounds (presumptive single agents) were tested against a panel of 50 kinases. The results are presented in Table 2; numbers for each kinase indicate the percent of control kinase activity in the presence of a 3μM concentration of the indicated agent.
(§2) Agents that target two or more different kinases are useful in the methods of the invention as described elsewhere herein. Such compounds may be identified, and their effect on certain kinases may be identified, using the assays briefly described below in Examples 4-83. Each of these assays was carried out as described in Davies et al., Biochem. J., 351:95-105 (2000). All assays were carried out at 10 μM ATP unless otherwise noted.

[2] = test system: HCT-116 cells; test: SCID mouse/HCT-116 xenograft model; details: for % Tumor Growth Inhibition / T/C (ratio of mean tumor volume for treated vs. vehicle control) / Tumor Volume: day 28; for Tumor Volume: mean ± SEM
Description: In one experiment, female CB.17 SCID mice were inoculated subcutaneously in the right hind limb with 2×10^6 HCT-116 cells. […] Treatment commenced on day 8 and proceeded for the duration of the study. All the compound treatments were given i.p. in a vehicle NPS in a volume of 5 ml/kg. […] The tumor volumes were measured twice a week using calipers. Values are mean±SEM. Statistical analysis was performed using ANOVA.
Female CB.17 SCID mice were inoculated subcutaneously in the right hind limb with 2×10^6 HCT-116 cells. […] Treatment commenced on day 8 and proceeded for the duration of the study. All the treatments were given i.p. in a vehicle NPS in a volume of 5 ml/kg.
Female CB.17 SCID mice were inoculated subcutaneously in the right hind limb with 2×10^6 HCT-116 cells. […] Treatment commenced on day 8 and proceeded for the duration of the study. All the compound treatments were given i.p. in a vehicle NPS in a volume of 5 ml/kg. […] The tumor volumes were measured twice a week using calipers.

[3] = biological target: CSK(h) (Homo sapiens, UniProt P41240); test: CSK(h) kinase assay; type: biochemical; details: 3 μM; percent of control kinase activity
Sequence of CSK(h) (P41240 whole entry): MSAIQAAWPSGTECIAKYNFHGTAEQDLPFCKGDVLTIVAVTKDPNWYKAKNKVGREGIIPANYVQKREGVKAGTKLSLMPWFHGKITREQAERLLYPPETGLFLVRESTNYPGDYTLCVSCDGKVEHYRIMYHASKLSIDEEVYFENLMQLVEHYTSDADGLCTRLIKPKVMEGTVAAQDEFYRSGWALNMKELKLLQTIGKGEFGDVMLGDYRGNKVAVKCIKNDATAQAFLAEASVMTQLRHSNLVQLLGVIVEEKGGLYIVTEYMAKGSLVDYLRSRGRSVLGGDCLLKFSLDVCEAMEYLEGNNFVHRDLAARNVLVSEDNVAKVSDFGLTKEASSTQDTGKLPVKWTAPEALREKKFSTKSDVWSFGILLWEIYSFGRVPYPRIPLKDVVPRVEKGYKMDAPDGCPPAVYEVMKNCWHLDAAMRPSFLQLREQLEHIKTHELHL
Description: as §1, §2
In a final reaction volume of 25 μl, CSK (h) (5-10 mU) is incubated with 50 mM Tris pH 7.5, 0.1 mM EGTA, 0.1 mM NaVanadate, 0.1% β-mercaptoethanol, 0.1 mg/ml poly(Glu, Tyr) 4:1, 10 mM MnCl2, 10 mM MgAcetate and [γ-^33P-ATP] (specific activity approx. 500 cpm/pmol, concentration as required). The reaction is initiated by the addition of Mg^2+ [γ-^33P-ATP]. After incubation for 40 minutes at room temperature, the reaction is stopped by the addition of 5 μl of a 3% phosphoric acid solution. 10 μl of the reaction is then spotted onto a Filtermat A and washed three times for 5 minutes in 75 mM phosphoric acid and once in methanol prior to drying and scintillation counting.

[4] = test system: panel of 50 kinases; test: Panel of 50 kinases (Table 2), count of inhibited kinases; type: biochemical; details: compared to a no-compound control; 3 μM
Description: as §1
CC006 (5-(5-Cyclopentyl-1H-[1,2,4]triazol-3-yl)-3-(4-fluoro-phenyl)-1H-indazole) and CC007 (3-(5-(1H-1,2,4-triazol-3-yl)(1H-indazol-3-yl))phenyl-N-cyclopentylcarboxamide) were included as controls.

[5] = biological target: T2, Bmx(h) (Homo sapiens, UniProt P51813); test: Bmx(h) kinase assay; type: biochemical; details: 3 μM; percent of control kinase activity
T2 sequence (P51813 1-675): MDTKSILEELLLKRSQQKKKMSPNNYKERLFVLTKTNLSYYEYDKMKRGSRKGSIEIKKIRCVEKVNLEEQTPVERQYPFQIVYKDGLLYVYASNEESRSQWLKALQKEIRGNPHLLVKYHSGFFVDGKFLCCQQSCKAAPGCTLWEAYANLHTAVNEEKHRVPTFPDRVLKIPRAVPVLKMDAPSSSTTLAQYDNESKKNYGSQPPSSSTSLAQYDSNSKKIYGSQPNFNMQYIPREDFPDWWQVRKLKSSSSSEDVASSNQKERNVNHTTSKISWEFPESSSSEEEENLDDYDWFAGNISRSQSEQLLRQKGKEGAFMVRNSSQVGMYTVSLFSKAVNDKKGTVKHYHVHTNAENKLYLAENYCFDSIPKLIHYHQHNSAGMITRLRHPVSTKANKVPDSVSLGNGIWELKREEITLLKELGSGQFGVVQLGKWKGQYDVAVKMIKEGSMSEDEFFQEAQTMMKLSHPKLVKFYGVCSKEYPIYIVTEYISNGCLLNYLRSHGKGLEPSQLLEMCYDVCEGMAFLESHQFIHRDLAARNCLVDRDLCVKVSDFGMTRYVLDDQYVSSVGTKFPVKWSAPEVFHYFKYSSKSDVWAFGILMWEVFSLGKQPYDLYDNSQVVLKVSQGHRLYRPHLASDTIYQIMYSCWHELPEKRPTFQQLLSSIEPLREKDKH
Description: as §1, §2

[6] = biological target: GSK3β(h) (Homo sapiens, UniProt P49841); test: GSK3β(h) kinase assay; type: biochemical; details: 3 μM; percent of control kinase activity
Sequence of GSK3β(h) (P49841 whole entry): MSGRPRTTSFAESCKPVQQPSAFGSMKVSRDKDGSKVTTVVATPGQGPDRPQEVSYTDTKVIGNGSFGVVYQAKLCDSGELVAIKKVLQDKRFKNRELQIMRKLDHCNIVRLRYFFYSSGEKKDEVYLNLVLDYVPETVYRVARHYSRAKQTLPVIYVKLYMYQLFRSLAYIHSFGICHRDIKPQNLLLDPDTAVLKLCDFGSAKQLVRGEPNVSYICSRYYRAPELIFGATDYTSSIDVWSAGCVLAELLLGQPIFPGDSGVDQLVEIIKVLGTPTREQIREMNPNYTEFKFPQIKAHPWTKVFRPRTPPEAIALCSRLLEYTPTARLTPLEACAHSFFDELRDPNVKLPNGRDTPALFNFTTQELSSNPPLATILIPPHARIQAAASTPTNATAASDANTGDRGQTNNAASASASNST
Description: as §1, §2
In a final reaction volume of 25 μl, GSK3β (h) (5-10 mU) is incubated with 8 mM MOPS pH 7.0, 0.2 mM EDTA, 20 μM […](p)EDEEE (phospho GS2 peptide; SEQ ID NO:3), 10 mM MgAcetate and [γ-^33P-ATP] (Specific activity approx. 500 cpm/pmol, concentration as required). The reaction is initiated by the addition of Mg^2+ [γ-^33P-ATP]. After incubation for 40 minutes at room temperature, the reaction is stopped by the addition of 5 μl of a 3% phosphoric acid solution. 10 μl of the reaction is then spotted onto a P30 filtermat and washed three times for 5 minutes in 50 mM phosphoric acid and once in methanol prior to drying and scintillation counting.

[7] = CC001 with Camptosar, model not named
[8] = Table 4, i.p. 20 mg/kg b.i.d. (b.i.d. day 8-11, then qd)

COc1ccc2cc(-c3n[nH]c4ccc(-c5n[nH]c(CN6CCOCC6)n5)cc34)ccc2c1 [CC001, 3-(6-Methoxynaphthalen-2-yl)-5-(5-Morpholin-4-Ylmethyl-1H-[1,2,4]Triazol-3-yl)-1H-Indazole]
Inhibitory activity (% of control), PKCμ(h) [1]: 6 % of control | effect on tumor development, in words ([2]; CC001 at 20 mg/kg administered with 2.5 mg/kg Camptosar): equivalent to an administration of Camptosar alone at 10 mg/kg | T/C ratio [2, 7]: ~15% | in vivo effects in combination, in words [2, 7]: Additive in vivo effects | TGD (days to reach 1000 mm^3) ([2]; Table 3, i.p. 20 mg/kg b.i.d.): >12 days | % Tumor Growth Inhibition ([2]; Table 3, i.p. 20 mg/kg b.i.d.): 69.6% | T/C (ratio of mean tumor volume for treated vs. vehicle control) ([2]; Table 3, i.p. 20 mg/kg b.i.d.): 32 | Tumor Volume ([2]; Table 3, i.p. 20 mg/kg b.i.d.): 798.3 ± 71.1^e mm^3 | % Tumor Growth Inhibition ([2]; Table 5, i.p. 20 mg/kg b.i.d.): 69% | T/C (ratio of mean tumor volume for treated vs. vehicle control) ([2]; Table 5, i.p. 20 mg/kg b.i.d.): 34 | Tumor Volume ([2]; Table 5, i.p. 20 mg/kg b.i.d.): 752.5 ± 66.6^e mm^3 | TGD (500 mm^3) ([2]; Table 5, i.p. 20 mg/kg b.i.d., days to reach 500 mm^3): >7 days | TGD (1000 mm^3) ([2]; Table 5, i.p. 20 mg/kg b.i.d., days to reach 1000 mm^3): >10 days | tumor mass over the course of the experiment, in words ([2]; i.p. 20 mg/kg b.i.d., P<0.001 compared to vehicle control): significantly smaller tumor mass | Inhibitory activity (% of control), CSK(h) [3]: 95 % of control | number of kinases listed in Table 2 whose activity is inhibited by more than 95% [4]: 16 | Inhibitory activity (% of control), Bmx(h) [5]: 74 % of control | Inhibitory activity (% of control), GSK3β(h) [6]: 12 % of control

CC(C)Cc1nc(-c2ccc3[nH]nc(-c4ccc5cc(OCCN6CCCC6)ccc5c4)c3c2)n[nH]1 [CC002, 5-(5-Isobutyl-1H-[1,2,4]Triazol-3-yl)-3-[6-(2-Pyrrolidin-1-yl-Ethoxy)-Naphthalen-2-yl]-1H-Indazole]
TGD (days to reach 1000 mm^3) [2, 8]: >12 days | % Tumor Growth Inhibition [2, 8]: 68% | T/C (ratio of mean tumor volume for treated vs. vehicle control) [2, 8]: 35 | Tumor Volume [2, 8]: 792.8 ± 86.5^e mm^3 | tumor volumes over the course of the experiment, in words ([2]; i.p. 20 mg/kg b.i.d. day 8-11, then qd, P<0.001 vs vehicle control): reduced tumor volumes | number of kinases listed in Table 2 whose activity is inhibited by more than 95% [4]: 29

CC(C)(C)Cc1nc(-c2ccc3[nH]nc(-c4ccc5cc(OCc6ccccn6)ccc5c4)c3c2)n[nH]1 [CC004, 5-[5-(2,2-Dimethyl-propyl)-1H-[1,2,4]triazol-3-yl]-3-[6-(pyridine-2-ylmethoxy)-naphthalen-2-yl]-1H-indazole]
Inhibitory activity (% of control), PKCμ(h) [1]: 34 % of control | Inhibitory activity (% of control), CSK(h) [3]: 123 % of control | number of kinases listed in Table 2 whose activity is inhibited by more than 95% [4]: 16 | Inhibitory activity (% of control), Bmx(h) [5]: 98 % of control | Inhibitory activity (% of control), GSK3β(h) [6]: 63 % of control

CCN1CCC[C@H]1COc1ccc2cc(-c3n[nH]c4ccc(-c5nc(CC(C)(C)C)n[nH]5)cc34)ccc2c1 [CC005, 2-[((2s)-1-ethylpyrrolidin-2-yl)methoxy]-6-{5-[3-(2,2-Dimethylpropyl)(1H-1,2,4,-triazol-5-yl)](1H-indazol-3-yl)}naphthalene]
Inhibitory activity (% of control), PKCμ(h) [1]: 2 % of control | Inhibitory activity (% of control), CSK(h) [3]: 88 % of control | Inhibitory activity (% of control), Bmx(h) [5]: 36 % of control | Inhibitory activity (% of control), GSK3β(h) [6]: 34 % of control
